Results as given in patent US20240216412A1, “OXIDIZED NICOTINAMIDE ADENINE DINUCLEOTIDE (NAD+) PRECURSOR TREATMENT FOR HEART FAILURE ALLEVIATION INDEPENDENT OF MITOCHONDRIAL PROTEIN DEACETYLATION” (University of Washington, priority 2022, published 2024).

Columns and labels:
[1] = test system: heart mRNA levels (Nppa, Ctgf, mtDNA encoded genes, PPARα/RXRα target genes); assay: RT-PCR of heart transcripts and mitochondrial RNA junctions; format: in vivo, mouse; conditions: ISO treated hearts, NR in the presence of GW6471
Method: RNA Extraction and Quantitative Real-Time Polymerase Chain Reaction (RT-PCR). Total RNA was isolated from frozen heart tissue using the RNeasy fibrous Kit (Qiagen). Total RNA was reverse-transcribed into first-strand cDNA using Iscript (Bio-rad) according to manufacturer's guidelines. Real Time PCR was performed using SYBR green (Bio-Rad). Results of mRNA levels were normalized to 18S rRNA levels and reported as fold-change over control.

cardiac mitochondria = assay: Isolated cardiac mitochondria respiration (oxygen electrode); format: in vivo, mouse; conditions: ISO treated mice, GW6471 in addition to NR
Method: Mitochondrial Isolation from cardiac tissue. Hearts were excised from mice, the aortas and atria were removed. Heart tissues were rinsed briefly in ice-cold mitochondria isolation medium (MIM) (70 mM sucrose, 220 mM mannitol, 5 mM MOPS, 1 mM EDTA, 0.025% fatty acid-free BSA, pH 7.4 with 5M KOH) to remove residual blood. Tissues were minced on ice and resuspended in fresh MIM, followed by trypsin digestion (10 ug/ml) and incubated on ice for 10 min. Trypsin digestion was stopped by the addition of trypsin inhibitor (0.5 mg/ml) and additional BSA (1 mg/ml) to MIM. The tissue pellets were resuspended in fresh MIM containing 1 mg/ml BSA, and transferred to a Teflon-glass tube and homogenized on ice with a Teflon pestle. The homogenates were centrifuged for 10 min at 800×g at 4° C. The supernatants were collected and centrifuged for 10 min at 8,000×g at 4° C. The supernatant was discarded and the mitochondrial pellets were resuspended in MIM to wash. The resuspension was centrifuged for 10 min at 8,000×g at 4° C., and the supernatant discarded. The mitochondrial pellet was resuspended to a concentrated volume for protein quantification by BCA Assay (Pierce).
Mitochondrial respirations. Isolated mitochondria respiration experiments were performed in an Clark type oxygen electrode Oxytherm System (Hansatech Instruments) at 30C. Briefly, freshly isolated mitochondria were added to respiration buffer (125 mM KCl, 20 mM HEPES, 3 mM MgCl2, 400 μM EGTA, 5 mM KH2PO4, 0.2% BSA (fatty acid free), pH 7.2) and placed in the respiration chamber to measure baseline respiration (State 1). The change in oxygen levels following the immediate addition of substrates (pyruvate/malate (5 mM/2 mM) or palmitoylcarnitine/malate (50 μM/2 mM) (State 2) followed by the sequential addition of 2.5 mM ADP (State 3), […] Oligomycin (State 4p) and 1 μM FCCP (FCCP Max). Antimycin A (2.5 μM) was added last to measure the residual oxygen consumption not accounted for by the electron transfer chain and it was subtracted from the previous measurements.

[2] = test system: isoproterenol (ISO) induced heart failure in WT and Sirt3Ko mice; assay: Isoproterenol (ISO) minipump induced heart failure, echocardiography and HW/TL; format: in vivo, mouse; conditions: 14 days of ISO, NR plus GW6471 4.5 mg/kg/day
Method: Minipump implantation. Pathologic hypertrophy was induced by treating male (3-4 months old) Sirt3ko and WT mice with isoproterenol (ISO) or vehicle for 14 days. Mice with and without GW6471(4.5 mg/kg/day) were treated with NR (500 mg/kg body weight IP daily) or vehicle starting at day one after mini-pump insertion. Briefly, an incision was made in the skin between the shoulder blades. A deep subcutaneous pocket was made caudal to the incision using blunt dissection. The sterile minipump (Alzet #2002) was inserted into the pocket, and the incision was closed with wound clips. Isoproterenol (30 mg/kg/day) was delivered by osmotic minipump for 14 days. Minipumps carrying saline were used as a control.
Transthoracic Echocardiography. Echocardiography of hearts was performed at indicated time after surgery using the VEVO 2100 high-frequency, high-resolution digital imaging system (VisualSonics) equipped with a MS400 Microscan Transducer on anesthetized mice (0.5%-2% isoflurane in 95% oxygen). Measurements were made when heart rate was >450 bpm. Cardiac function and geometry measurements were measured in parasternal short axis view. M-mode images were used for analysis and calculated by the average of at least three cardiac cycles and carried out in a blind fashion. Hearts were harvested at 12-week post-surgery for subsequent experiments and biochemical assays.
Organ weight and histological assessment. Hearts from mice were harvested, rinsed briefly in 1×PBS, blotted dry, and weighed. Lungs from the same mice were harvested, weighed, then dried at 56 C. After 72 hours the lungs were weighed again. Heart weight (HW) and Lung weight (LW) was normalized to tibia length (TL) to assess changes in hypertrophic growth and lung edema, respectively. For histology, hearts were perfusion fixed with 10% neutral buffered formalin. Longitudinal sections of hearts were stained with Masson's Trichrome for assessment of fibrosis by the University of Washington Histology and Imaging Core.

RXRα = assay: Chromatin immunoprecipitation (ChIP) of RXRα at the Acadm promoter PPRE; format: in vivo; conditions: ISO mouse hearts, NR plus GW6471
Method: Chromatin immunoprecipitation (ChIP). The EZ ChIP kit (EMD Millipore catalog #17-371) was used according to the manufacturer's protocol. Briefly, heart tissue was cut into small pieces using a razor blade in a petri dish on ice. The cubed tissue was incubated in fixation solution (1% formaldehye) in a conical tube and rotated at room temperature for 15 minutes to crosslink proteins and chromatin. The reaction was stopped by adding 0.125M Glycine for 5 min at room temperature. The contents were homogenized with a hand-held tissue homogenizer for 45 seconds then pelleted by centrifugation for 3 minutes at 1,250×g at 4C. The supernatant was discarded and the pellet was resuspended in 10 ml ice-cold PBS wash buffer followed by centrifugation at 1,250×g for 3 minutes. This was wash step was repeated on ice. The supernatant was discarded and the pellet resuspended in 5 ml chromatin prep buffer and incubated on ice for 10 minutes. The resuspended pellet was homogenized on ice with a dounce homogenizer for 30 strokes and then contents transferred to new conical tube on ice. The suspension was centrifuged 3 minutes at 1,250×g at 4C then supernatant discarded. The pellet was resuspended in 1 ml Chip buffer and transferred to new centrifuge tube then incubated on ice for 10 minutes. […] Purified chromatin was analyzed on a 1% agarose gel to determine the shearing efficiency. […]

## CCC(=O)NC[C@H](Cc1ccc(OCCc2nc(-c3ccccc3)oc2C)cc1)N/C(C)=C\C(=O)c1ccc(C(F)(F)F)cc1 [GW6471]
[1]
  PPARα/RXRα target gene expression: failed to preserve
Cardiac mitochondria
  Restoration by NR of PLC supported State 3 respiration: clearly blocked
[2]
  Protection by NR (FS %, cardiac hypertrophy): blocked
RXRα
  NR-induced increase of RXRα binding occupancy at the Acadm PPRE: blocked
